Assay results as given in publication PMC9572541, “Design, Synthesis and Biological Evaluation of Novel and Potent Protein Arginine Methyltransferases 5 Inhibitors for Cancer Therapy” (Molecules, 2022).
Like-named read-outs stand apart in the source and are kept apart here.

Assays:
PRMT5 [1] = molecular target: T1, PRMT5 (Homo sapiens, UniProt O14744); assay: PRMT5 enzymatic activity inhibition assay (radioactive methylation, 3H-SAM to H4R3 peptide); assay type: biochemical
T1 construct: The final concentrations of PRMT5 enzyme: 2.5 nm/L
Description: The PRMT5 enzymatic activity assay was conducted by Chempartner Life science. The final concentrations of PRMT5 enzyme: 2.5 nm/L; ^3H-SAM: 0.3 μM/L; histone peptide (H4R3S1ac): 0.3 μM/L. The protocol of radioactive methylation assay was as follows: (1) Prepare 1× assay buffer (modified Tris Buffer). (2) Transfer compounds to assay plate using Echo in 100% DMSO. DMSO’s final fraction is 1%. (3) Prepare enzyme and ^3H-SAM Mix solution in 1× assay buffer. (4) Prepare substrate (peptide sequence Ac-[…]-K(Biotin)) solution in 1× assay buffer. (5) Transfer 15 μL of enzyme and ^3H-SAM solution to assay plate. (6) Incubate at room temperature for 60 min. (7) Add 10 μL of substrate solution to each well to start the reaction, and for low control transfer 10 μL of 1× assay buffer. (8) Incubate at room temperature for 120 min. (9) Add cold SAM in 1× assay buffer to make the stop mix. (10) Stop reaction with addition of 5 µL per well of stop solution. (11) Transfer 25 µL of volume per well to Flash plate from assay plate. (12) Incubate for 1 h minimum at room temperature.
(13) Read plate on Micro beta. (14) Data process—get the data in Excel to obtain inhibition values using Equation (1).Inhibitory rate% = (Max-Signal)/ (Max-Min) × 100(1)
Fit the data in XL-Fit to obtain IC50 values using Equation (2): Y = Bottom + (Top-Bottom)/(1 + (IC50/X) […]) Y is% inhibition and X is compound concentration(2)

[2] = Pharmacokinetic study in ICR mice; assay type: in vivo, mouse; settings: for MRT last: read-out: MRT0-t; for MRT inf: read-out: MRT0-∞
Description: The pharmacokinetic properties were evaluated by PRECEDO. China. SPF ICR mice (18–20 g, 6–8 weeks, n = 3 per group) were used to carried out pharmacokinetics determinations. […] Colleting samples at different times after treatment. Plasma was obtained from the blood samples by centrifugation (6000 rpm for 3 min at 2–8 °C) and stored at −20 °C. The LC-MS/MS (Shimadzu, API 4000) method was used to determine the concentration of each animal at each time point.

PRMT5 [3] = molecular target: T1, PRMT5; assay: Cellular thermal shift assay (CETSA) in MV-4-11 cells; assay type: cell-based
Description: The cellular thermal shift assay and the isothermal dose response were run as previously described. Briefly, MV-4-11 cells were collected and centrifugated (4 min, 1000 rpm) and washed twice with PBS. Then the cells were divided three equal parts with seeding density of 1 × 10^6 cells/mL into 60 mm cell culture dish in three mL media. The cell suspension was incubated with DMSO and compounds for 18 h at 37 °C, 5% CO2, and 85% RH.
After incubation, cells were collected and washed twice with PBS. Then they divided the ten parts into transferred thin-walled PCR tubes (0.2 mL, Axygen, Union City, CA, USA) in 50μL PBS. Cells were subjected to 3 min of heat in 96-well thermal cycler (Eppendorf Mastercycler nexus GSX1, Düsseldorf, German) at temperatures of 37, 46, 49, 52, 55, 58, 61, 64, 67 and 70 °C. After heating, cells were left to cool for 3 min and then snap frozen in −80 °C ultra-low temperature freezer overnight. The next day, cells were subjected to 3 rapid freeze thaws with 15 s of vortexing after each thaw. […]
(B) The relative strength of PRMT5 signal on the Western blots was measured by densitometry. […] All data were analyzed using a Boltzmann sigmoidal fit. […]

MV-4-11 cells = assay: Anti-proliferation CellTiter-Glo assay, MV-4-11; assay type: cell-based; settings: Homo sapiens, MV4-11, 12th day
From the text: MV-4-11 and MDA-MB-468 cell lines were used to evaluate the anti-proliferative activities of the selected target compounds (CellTiter-Glo assay), and AML-12 hepatocytes were selected to evaluate the toxicity of the compounds.
MV-4-11 and MDA-MB-468 cell line were derived from Cell Resources Center of Shanghai Academy of life sciences (Shanghai, China). AML-12 cell line was brough from Nanjing Lixing Biotechnology Co. Ltd. (Nanjing, China). MDA-MB-468 cell line was maintained in Dulbecco’s Modified Eagle Medium (DMEM, KeyGEN Bio) that contained 10% FBS (Biochanel, China), MV-4-11 cell line was maintained in Iscove’s Modified Dulbecco Medium containing; 10% FBS (Biochannel, China), AML-12 cell line was maintained in DMEM/F-12 (1:1) (KeyGEN, China; 1% ITS Liquid Media Supplement (Sigma, America), dexamethasone 40 ng/mL (Sigma, USA) and 10% FBS (Biochannel, China). All cells were grown in a humidified incubator containing 5% carbon dioxide at 37 ℃. All compounds were dispersed in dimethyl sulfoxide (Sigma), the concentration of the reserve solution was 10 mmol/L and the solution was stored in a refrigerator at −20 ℃. SDMA (# 13222S), β- Tubulin (#2146S) and horseradish peroxidase (HRP)-linked secondary antibodies anti-rabbit or anti-mouse IgG were purchased from Cell Signaling Technology (CST), and the anti-PRMT5 (ab109451) antibody was purchased from ABCAM.
The antiproliferative activities of compounds in vitro were measured by CellTiter-Glo (CTG) assay (Promega, America). In linear/log-phase growth, cultured MV-4-11 cells were split to with seeding density of 2 × 10^5 cells/mL in 1–20 mL of media, depending on the yield required at the end of the growth period. At the conclusion of each treatment period, cells were harvested by centrifugation (4 min, 1000 rpm), and cell pellets were rinsed twice with PBS before being research further processing. Afterwards, cells were plated in 96-well plates with a density of 500 cells/well in […] media. After six hours incubation, compounds treatment was performed. Half of the culture medium was moved and re-plated with fresh media with fresh compound after 6 days. On the 12th day, Cell Titer-Glo Luminescent Cell Viability assays (Promega, USA) were used to determine the viable cell number, and luminescence was recorded using the Envision Multilabel Plate Readers (PerkinElmer). The concentration dependence curves were determined at each time point using GraphPad Prism 8.0 software.

[4] = ICR, mouse, plasma, iv, 2 mg/kg, male mice, Table S1, mean ± SD
[5] = ICR, mouse, plasma, oral gavage, 10 mg/kg, male mice, Table S2, mean
[6] = male, ICR, mouse, plasma, iv, 2 mg/kg, ICR mouse, Table 4
[7] = male, ICR, mouse, plasma, iv, 2 mg/kg, male mice, Table S1, mean ± SD
[8] = male, ICR, mouse, plasma, po, 10 mg/kg, ICR mouse, Table 4
[9] = male, ICR, mouse, plasma, po, 10 mg/kg, oral gavage, male mice, Table S2, mean

T1 sequence (O14744 whole entry): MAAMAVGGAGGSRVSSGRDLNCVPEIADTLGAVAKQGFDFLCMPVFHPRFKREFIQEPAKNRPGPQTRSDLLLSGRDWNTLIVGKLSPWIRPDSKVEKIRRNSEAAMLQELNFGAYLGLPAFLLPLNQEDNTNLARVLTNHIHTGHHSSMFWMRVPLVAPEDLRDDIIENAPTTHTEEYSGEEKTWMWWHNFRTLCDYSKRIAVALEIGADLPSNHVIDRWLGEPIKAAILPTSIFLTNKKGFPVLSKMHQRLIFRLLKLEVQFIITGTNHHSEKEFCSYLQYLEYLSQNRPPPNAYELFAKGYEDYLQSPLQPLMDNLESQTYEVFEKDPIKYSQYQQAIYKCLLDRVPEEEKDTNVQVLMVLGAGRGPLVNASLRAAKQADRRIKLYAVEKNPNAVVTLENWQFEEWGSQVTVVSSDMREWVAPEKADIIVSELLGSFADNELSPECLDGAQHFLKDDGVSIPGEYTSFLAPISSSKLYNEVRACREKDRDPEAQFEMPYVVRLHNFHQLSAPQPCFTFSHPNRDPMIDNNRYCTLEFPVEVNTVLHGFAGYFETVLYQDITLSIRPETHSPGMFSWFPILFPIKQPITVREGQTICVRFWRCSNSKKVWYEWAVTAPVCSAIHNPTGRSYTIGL
T1 sequence (Q9BQA1 whole entry partner): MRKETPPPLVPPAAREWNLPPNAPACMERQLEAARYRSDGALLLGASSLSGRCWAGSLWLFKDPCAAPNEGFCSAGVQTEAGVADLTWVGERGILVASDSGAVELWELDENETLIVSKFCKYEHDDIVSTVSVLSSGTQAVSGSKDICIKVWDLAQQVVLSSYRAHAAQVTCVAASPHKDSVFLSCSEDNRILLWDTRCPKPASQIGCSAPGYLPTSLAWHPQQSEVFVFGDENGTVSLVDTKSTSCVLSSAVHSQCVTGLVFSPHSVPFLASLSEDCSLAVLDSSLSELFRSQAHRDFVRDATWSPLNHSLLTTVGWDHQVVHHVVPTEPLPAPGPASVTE

SMILES: O=C(NC[C@H](O)CN1CCc2ccccc2C1)c1ccc2c(c1)c1c(n2CC2COC2)CCCC1 [Compound 20, (S)-N-(3-(3,4-dihydroisoquinolin-2(1H)-yl)-2-hydroxypropyl)-9-(oxetan-3-ylmethyl)-2,3,4,9-tetrahydro-1H-carbazole-6-carboxamide]
- IC50 (PRMT5 [1]): 4.2 ± 1.3 nM
- inhibition at 0.1 µM (PRMT5 [1]; 100 nM compound, read-out: Inhibition Rate% @100 nM): 83 ± 12%
- AUC(0-t) [2, 4]: 1030 ± 68.5 ng·h/mL
- C0 [2, 4]: 1940 ± 330 ng/mL
- Tmax [2, 4]: 4.8 min
- half-life [2, 4]: 29.4 ± 13.8 min
- MRT last [2, 4]: 26.4 ± 3 min
- MRT inf [2, 4]: 27 ± 3 min
- AUC(0-t) [2, 5]: 728 ng·h/mL
- Tmax [2, 5]: 15 min
- bioavailability [2, 5]: 14.5%
- half-life [2, 5]: 364 min
- MRT last [2, 5]: 73.2 min
- MRT inf [2, 5]: 115 min
- T1/2 ([2]; iv, 2 mg/kg, ICR mouse, Table 4): 29.4 min
- AUC(0-inf) [2, 6]: 1030 ng·h/mL
- Cmax [2, 6]: 1690 ng/mL
- clearance [2, 6]: 32.4 mL/min/kg
- Vd ([2]; male, ICR, mouse, plasma, iv, 2 mg/kg, iv, 2 mg/kg, ICR mouse, Table 4, read-out: Vss): 1.35 L/kg
- Vd ([2]; male, ICR, mouse, plasma, iv, 2 mg/kg, iv, 2 mg/kg, male mice, Table S1, mean ± SD, read-out: Vz): 1.35 ± 0.556 L/kg
- AUC(0-inf) [2, 7]: 1030 ± 64.8 ng·h/mL
- Cmax [2, 7]: 1690 ± 133 ng/mL
- clearance [2, 7]: 32.4 mL/min/kg
- AUC(0-inf) [2, 8]: 747 ng·h/mL
- Cmax [2, 8]: 1270 ng/mL
- AUC(0-inf) [2, 9]: 747 ng·h/mL
- Cmax [2, 9]: 1270 ng/mL
- bioavailability ([2]; male, plasma, po 10 mg/kg vs iv 2 mg/kg, ICR mouse, Table 4): 14.5%
- T1/2 ([2]; po, 10 mg/kg, ICR mouse, Table 4): 364 min
- PRMT5 melting point increase compared to DMSO vehicle (PRMT5 [3]; 1 μM, 18 h): 7.2 °C
- Inhibition of PRMT5 degradation at 58 °C (PRMT5 [3]; isothermal dose response, 58 °C): dose-dependent manner
- GI50 (MV-4-11 cells): 4.6 ± 0.9 nM
